{
  "source": "BindingDB's records for patent US11839613",
  "about": "(Idorsia Pharmaceuticals, 2023)",
  "key": {"[1]": {"molecular_target": "Prostaglandin E2 receptor EP4 subtype (Homo sapiens, UniProt P35408)", "sequence (P35408 whole entry)": "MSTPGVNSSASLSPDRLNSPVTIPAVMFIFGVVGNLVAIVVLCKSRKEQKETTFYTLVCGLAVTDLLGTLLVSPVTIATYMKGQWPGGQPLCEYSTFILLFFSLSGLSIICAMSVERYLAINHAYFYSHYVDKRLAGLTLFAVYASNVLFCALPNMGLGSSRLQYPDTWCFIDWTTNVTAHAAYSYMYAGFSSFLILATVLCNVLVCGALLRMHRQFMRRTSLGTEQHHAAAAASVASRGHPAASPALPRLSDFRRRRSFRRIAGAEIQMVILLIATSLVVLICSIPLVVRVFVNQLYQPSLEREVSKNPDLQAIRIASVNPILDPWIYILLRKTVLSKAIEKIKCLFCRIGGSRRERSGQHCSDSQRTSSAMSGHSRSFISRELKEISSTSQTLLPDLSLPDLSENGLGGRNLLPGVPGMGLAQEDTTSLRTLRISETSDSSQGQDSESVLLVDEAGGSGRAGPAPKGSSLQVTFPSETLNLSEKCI", "experiment": "hEP4 cAMP Assay", "quoted_text": "Cells are counted washed and resuspended in assay buffer (AB; HBSS, 20 mM HEPES, 0.2% BSA; 2 mM IBMX). […] Plate is pre-incubated 45 minutes at RT. Subsequently, 2.5 microliters of PGE2 (final conc. 6 nM) are transferred into the assay plate. Plate is incubated 30 minutes at RT. […] For each compound concentration the percentage of cAMP compared to DMSO control value as average ±STDEV (each concentration is measured in duplicate) is calculated."}, "[2]": {"molecular_target": "Prostaglandin E2 receptor EP2 subtype (Homo sapiens, UniProt P43116)", "sequence (P43116 whole entry)": "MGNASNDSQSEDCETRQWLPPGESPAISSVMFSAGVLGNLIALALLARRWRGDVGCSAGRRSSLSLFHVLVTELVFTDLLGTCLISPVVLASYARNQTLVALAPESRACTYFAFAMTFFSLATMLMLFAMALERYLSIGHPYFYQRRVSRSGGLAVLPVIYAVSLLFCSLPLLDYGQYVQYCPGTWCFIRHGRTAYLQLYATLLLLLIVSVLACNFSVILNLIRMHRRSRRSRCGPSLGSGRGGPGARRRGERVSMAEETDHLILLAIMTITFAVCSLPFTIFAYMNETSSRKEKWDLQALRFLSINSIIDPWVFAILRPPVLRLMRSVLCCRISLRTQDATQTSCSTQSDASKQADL", "experiment": "hEP2 cAMP Assay", "description": "Cells are counted washed and resuspended in assay buffer (AB; HBSS, 20 mM HEPES, 0.2% BSA; 2 mM IBMX). […] Plate is pre-incubated 45 minutes at RT. […] Plate is incubated 30 minutes at RT."}},
  "data": [
    {"smiles": "CCOc1cc2c(cc1CCNc1cc(-c3ccc(CC(=O)O)c(OC(C)C)c3)ncn1)OCCO2", "note": "[US11839613, Example 425]", "values": [
      {"measurement": "IC50", "setting": "[1]", "result": 356, "unit": "nM"},
      {"measurement": "IC50", "setting": "[2]", "result": 226, "unit": "nM"}
    ]},
    {"smiles": "CSc1cc(-c2cc(NCCc3ccc4scc(Cl)c4c3)ncn2)ccc1C(=O)O", "note": "[US11839613, Example 429]", "values": [
      {"measurement": "IC50", "setting": "[1]", "result": 38, "unit": "nM"},
      {"measurement": "IC50", "setting": "[2]", "result": 66, "unit": "nM"}
    ]},
    {"smiles": "O=C(O)c1ccc(-c2cc(NCCc3ccc4scc(Cl)c4c3)ncn2)cc1OC1CCC1", "note": "[US11839613, Example 430]", "values": [
      {"measurement": "IC50", "setting": "[1]", "result": 40, "unit": "nM"},
      {"measurement": "IC50", "setting": "[2]", "result": 185, "unit": "nM"}
    ]},
    {"smiles": "CCOc1cc(-c2cc(NCCc3ccc4scc(Cl)c4c3)ncn2)ccc1CC(=O)O", "note": "[US11839613, Example 431]", "values": [
      {"measurement": "IC50", "setting": "[1]", "result": 43, "unit": "nM"},
      {"measurement": "IC50", "setting": "[2]", "result": 460, "unit": "nM"}
    ]},
    {"smiles": "COc1cc2c(c(C)c1CCNc1cc(-c3ccc(C(=O)O)c(OC(C)C)c3)ncn1)OCCO2", "note": "[US11839613, Example 432]", "values": [
      {"measurement": "IC50", "setting": "[1]", "result": 72, "unit": "nM"},
      {"measurement": "IC50", "setting": "[2]", "result": 10, "unit": "nM"}
    ]},
    {"smiles": "CCOc1cc(-c2cc(NCCc3cc4c(cc3OC(F)F)OCCO4)ncn2)sc1C(=O)O", "note": "[US11839613, Example 433]", "values": [
      {"measurement": "IC50", "setting": "[1]", "result": 13, "unit": "nM"},
      {"measurement": "IC50", "setting": "[2]", "result": 57, "unit": "nM"}
    ]},
    {"smiles": "CCOc1cc(-c2cc(NCCc3c(OC)cc4c(c3F)OCCO4)ncn2)ccc1C(=O)O", "note": "[US11839613, Example 435]", "values": [
      {"measurement": "IC50", "setting": "[1]", "result": 80, "unit": "nM"},
      {"measurement": "IC50", "setting": "[2]", "result": 28, "unit": "nM"}
    ]},
    {"smiles": "COc1cc(-c2cc(NCCc3ccc4sccc4c3F)ncn2)ccc1OCCC(=O)O", "note": "[US11839613, Example 437]", "values": [
      {"measurement": "IC50", "setting": "[1]", "result": 37, "unit": "nM"},
      {"measurement": "IC50", "setting": "[2]", "result": 227, "unit": "nM"}
    ]},
    {"smiles": "COc1cc(-c2cc(NCCc3cc(F)c4sccc4c3)ncn2)ccc1OCCC(=O)O", "note": "[US11839613, Example 438]", "values": [
      {"measurement": "IC50", "setting": "[1]", "result": 29, "unit": "nM"},
      {"measurement": "IC50", "setting": "[2]", "result": 708, "unit": "nM"}
    ]},
    {"smiles": "C#Cc1cc2c(cc1CCNc1cc(-c3ccc(C(=O)O)c(OCC)c3)ncn1)OCCO2", "note": "[US11839613, Example 439]", "values": [
      {"measurement": "IC50", "setting": "[1]", "result": 139, "unit": "nM"},
      {"measurement": "IC50", "setting": "[2]", "result": 33, "unit": "nM"}
    ]},
    {"smiles": "C#Cc1cc2c(cc1CCNc1cc(-c3ccc(CC(=O)O)c(CCC)c3)ncn1)OCCO2", "note": "[US11839613, Example 440]", "values": [
      {"measurement": "IC50", "setting": "[1]", "result": 65, "unit": "nM"},
      {"measurement": "IC50", "setting": "[2]", "result": 25, "unit": "nM"}
    ]},
    {"smiles": "COc1cc2c(c(C)c1CCNc1cc(-c3ccc(CC(=O)O)c(OC(F)F)c3)ncn1)OCCO2", "note": "[US11839613, Example 441]", "values": [
      {"measurement": "IC50", "setting": "[1]", "result": 31, "unit": "nM"},
      {"measurement": "IC50", "setting": "[2]", "result": 21, "unit": "nM"}
    ]},
    {"smiles": "COc1cc2ccccc2c(C)c1CCNc1cc(-c2ccc(CC(=O)O)c(OC(F)F)c2)ncn1", "note": "[US11839613, Example 443]", "values": [
      {"measurement": "IC50", "setting": "[1]", "result": 43, "unit": "nM"},
      {"measurement": "IC50", "setting": "[2]", "result": 549, "unit": "nM"}
    ]},
    {"smiles": "CCc1cc(-c2cc(NCCc3c(OC)cc4c(c3C)OCCO4)ncn2)ccc1CC(=O)O", "note": "[US11839613, Example 444]", "values": [
      {"measurement": "IC50", "setting": "[1]", "result": 80, "unit": "nM"},
      {"measurement": "IC50", "setting": "[2]", "result": 22, "unit": "nM"}
    ]},
    {"smiles": "CCc1cc(-c2cc(NCCc3c(OC)cc4ccccc4c3C)ncn2)ccc1CC(=O)O", "note": "[US11839613, Example 445]", "values": [
      {"measurement": "IC50", "setting": "[1]", "result": 104, "unit": "nM"},
      {"measurement": "IC50", "setting": "[2]", "result": 525, "unit": "nM"}
    ]},
    {"smiles": "CCc1cc(-c2cc(NCCc3c(OC)cc4ccccc4c3C)ncn2)ccc1C(=O)O", "note": "[US11839613, Example 446]", "values": [
      {"measurement": "IC50", "setting": "[1]", "result": 98, "unit": "nM"},
      {"measurement": "IC50", "setting": "[2]", "result": 160, "unit": "nM"}
    ]},
    {"smiles": "COc1cc2ccccc2c(C)c1CCNc1cc(-c2ccc(C(=O)O)c(OC3CC3)c2)ncn1", "note": "[US11839613, Example 448]", "values": [
      {"measurement": "IC50", "setting": "[1]", "result": 26, "unit": "nM"},
      {"measurement": "IC50", "setting": "[2]", "result": 55, "unit": "nM"}
    ]},
    {"smiles": "O=C(O)c1ccc(-c2cc(NCCc3cc(F)c4sccc4c3)ncn2)cc1OC1CC1", "note": "[US11839613, Example 449]", "values": [
      {"measurement": "IC50", "setting": "[1]", "result": 21, "unit": "nM"},
      {"measurement": "IC50", "setting": "[2]", "result": 131, "unit": "nM"}
    ]},
    {"smiles": "COc1cc2c(cc1CCNc1cc(-c3ccc(CC(=O)O)c(OC(F)(F)F)c3)ncn1)OCCO2", "note": "[US11839613, Example 450]", "values": [
      {"measurement": "IC50", "setting": "[1]", "result": 80, "unit": "nM"},
      {"measurement": "IC50", "setting": "[2]", "result": 165, "unit": "nM"}
    ]}
  ]
}
